In paper PMC7764612 (Pharmaceuticals, 2020):
Values joined by “and” are separate entries in the source; they are usually repeats but may differ in a detail not shown here. Equal values may be shown once. “Also recorded” adds a separate entry of the source.

Legend:
in vitro = conditions: human
TBEV Neudoerfl strain [1] = format: cell-based, tick-borne encephalitis virus
TBEV Neudoerfl strain [2] = assay: microbe, parasite or virus in culture; format: cell-based, tick-borne encephalitis virus; conditions: for IC50: Tick-borne encephalitis virus, A549, 72 h, read-out: IC50 (concentration to reduce infectious viral titers by 50%)
TBEV Hypr strain = format: cell-based, tick-borne encephalitis virus
TBEV E protein = format: cell-based, tick-borne encephalitis virus

CC(=O)OC[C@H]1O[C@@H](OCc2cn(C[C@H]3O[C@@H](n4ccc(=O)[nH]c4=O)[C@@H]4OC(C)(C)O[C@@H]43)nn2)[C@H](OC(C)=O)[C@@H](OC(C)=O)[C@@H]1OC(C)=O [Compound 22, 2′,3′-O-isopropylidene-5′-deoxy-5′-[4-(2″,3″,4″,6″-tetra-O-acetyl-β-D-glucopyranosyl-oxymethyl)-1,2-3-triazol-1-yl]uridine]
melting point: 108 to 110 °C
CC50 (in vitro): 173 µM

CC(=O)OC[C@H]1O[C@@H](n2cc(CNC(=O)[C@H]3O[C@@H](n4ccc(=O)[nH]c4=O)[C@@H]4OC(C)(C)O[C@@H]43)nn2)[C@H](OC(C)=O)[C@@H](OC(C)=O)[C@@H]1OC(C)=O [Compound 16]
CC50 (in vitro): 136 µM

CC(=O)OC[C@H]1O[C@@H](n2cc(CNC(=O)[C@H]3O[C@@H](n4ccc(=O)[nH]c4=O)[C@@H]4OC(C)(C)O[C@@H]43)nn2)[C@H](OC(C)=O)[C@@H](OC(C)=O)[C@H]1OC(C)=O [Compound 17]
CC50 (in vitro): 137 µM

CC(=O)OC[C@H]1O[C@@H](OCc2cn(C[C@H]3O[C@@H](n4ccc(=O)[nH]c4=O)[C@@H]4OC(C)(C)O[C@@H]43)nn2)[C@H](OC(C)=O)[C@@H](OC(C)=O)[C@H]1OC(C)=O [Compound 23, 2′,3′-O-isopropylidene-5′-deoxy-5′-[4-(2″,3″,4″,6″-tetra-O-acetyl-β-D-galactopyranosyl-oxymethyl)-1,2-3-triazol-1-yl]uridine]
melting point: 101 to 105 °C
CC50 (in vitro): 157 µM

CC(=O)OC[C@H]1O[C@@H](NC(=O)[C@H]2O[C@@H](n3ccc(=O)[nH]c3=O)[C@@H]3OC(C)(C)O[C@@H]32)[C@H](OC(C)=O)[C@@H](OC(C)=O)[C@@H]1OC(C)=O [Compound 13]
CC50 (in vitro): 129 µM

CC(=O)OC[C@H]1O[C@@H](n2cc(COC[C@H]3O[C@@H](n4ccc(=O)[nH]c4=O)[C@H](O[Si](C)(C)C(C)(C)C)[C@@H]3O[Si](C)(C)C(C)(C)C)nn2)[C@H](OC(C)=O)[C@@H](OC(C)=O)[C@H]1OC(C)=O [Compound 21, 1-(2″,3″,4″,6″-tetra-O-acetyl-β-D-galactopyranosyl)-4-(2′,3′-di-O-tert-butyldimethylsilyl-uridine-5′-O-methyl)-[1,2,3]-triazole]
CC50 (in vitro): 116 µM
Inhibition of TBEV propagation (size and number of plaques) (TBEV Neudoerfl strain [1]): nearly a complete inhibition of TBEV propagation
Plaques detected in dose-response plaque reduction assay (TBEV Neudoerfl strain [1]): no plaques were detected
Reduction in the number of plaques (TBEV Neudoerfl strain [1]): 92% and 62%
Effect on TBEV titers in dose-response assay (TBEV Neudoerfl strain [2]): significantly reduced TBEV titers in a dose-dependent manner
Reduction in viral titer (TBEV Neudoerfl strain [2]): 10^4 fold
SI (selectivity index: CC50/IC50) (TBEV Neudoerfl strain [2]): 24.7
Virus detected in culture supernatant (viral titer) (TBEV Neudoerfl strain [2]): no virus was detected
IC50 (TBEV Neudoerfl strain [2]): 4.7 µM
TBEV-induced cytopathic effect / rate of cell death (TBEV Hypr strain): nearly completely inhibited; also recorded: significantly increased cell survival
Production of TBEV E protein (Western blot) (TBEV E protein): dose-dependent reduction; also recorded: greatly decreased at all tested concentrations

CC1(C)O[C@@H]2[C@H](O1)[C@@H](C(=O)N[C@@H]1O[C@H](COCc3ccccc3)[C@@H](OCc3ccccc3)[C@H](OCc3ccccc3)[C@H]1OCc1ccccc1)O[C@H]2n1ccc(=O)[nH]c1=O [Compound 15, N-(2″,3″,4″,6″-tetra-O-benzyl-β-D-galactopyranosyl)-2′,3′-O-isopropylidene-uridine-5′-amide]
CC50 (in vitro): 153 µM

CC(=O)OC[C@H]1O[C@@H](n2cc(CNC(=O)[C@H]3O[C@@H](n4ccc(=O)[nH]c4=O)[C@H](O[Si](C)(C)C(C)(C)C)[C@@H]3O[Si](C)(C)C(C)(C)C)nn2)[C@H](OC(C)=O)[C@@H](OC(C)=O)[C@H]1OC(C)=O [Compound 19, 1-(2″,3″,4″,6″-tetra-O-acetyl-β-D-galactopyranosyl)-4-(2′,3′-di-O-tert-butyldimethylsilyl-uridine-5′-carbonylaminomethyl)-[1,2,3]-triazole]
CC50 (in vitro): 77 µM
Inhibition of TBEV propagation (size and number of plaques) (TBEV Neudoerfl strain [1]): effectively inhibited virus propagation
Reduction in the number of plaques (TBEV Neudoerfl strain [1]): 81%
Effect on TBEV titers in dose-response assay (TBEV Neudoerfl strain [2]): significantly reduced TBEV titers in a dose-dependent manner
Reduction in viral titer (TBEV Neudoerfl strain [2]): 10^3–10^6 fold
SI (selectivity index: CC50/IC50) (TBEV Neudoerfl strain [2]): 5.1
IC50 (TBEV Neudoerfl strain [2]): 15.1 µM
TBEV-induced cytopathic effect / rate of cell death (TBEV Hypr strain): strongly reduced; also recorded: significantly increased cell survival
Production of TBEV E protein (Western blot) (TBEV E protein): dose-dependent reduction

CC(=O)OC[C@H]1O[C@@H](n2cc(COC[C@H]3O[C@@H](n4ccc(=O)[nH]c4=O)[C@H](O[Si](C)(C)C(C)(C)C)[C@@H]3O[Si](C)(C)C(C)(C)C)nn2)[C@H](OC(C)=O)[C@@H](OC(C)=O)[C@@H]1OC(C)=O [Compound 20, 1-(2″,3″,4″,6″-tetra-O-acetyl-β-D-glucopyranosyl)-4-(2′,3′-di-O-tert-butyldimethylsilyl-uridine-5′-O-methyl)-[1,2,3]-triazole]
CC50 (in vitro): 184 µM
Inhibition of TBEV propagation (size and number of plaques) (TBEV Neudoerfl strain [1]): nearly a complete inhibition of TBEV propagation
Plaques detected in dose-response plaque reduction assay (TBEV Neudoerfl strain [1]): no plaques were detected
Reduction in the number of plaques (TBEV Neudoerfl strain [1]): 96% and 75%
Effect on TBEV titers in dose-response assay (TBEV Neudoerfl strain [2]): significantly reduced TBEV titers in a dose-dependent manner
Reduction in viral titer (TBEV Neudoerfl strain [2]): 10^3 fold
SI (selectivity index: CC50/IC50) (TBEV Neudoerfl strain [2]): 49.7
Virus detected in culture supernatant (viral titer) (TBEV Neudoerfl strain [2]): no virus was detected
IC50 (TBEV Neudoerfl strain [2]): 3.7 µM
TBEV-induced cytopathic effect / rate of cell death (TBEV Hypr strain): nearly completely inhibited; also recorded: significantly increased cell survival
Production of TBEV E protein (Western blot) (TBEV E protein): complete inhibition of viral protein synthesis

CC(=O)OC[C@H]1O[C@@H](n2cc(CNC(=O)[C@H]3O[C@@H](n4ccc(=O)[nH]c4=O)[C@H](O[Si](C)(C)C(C)(C)C)[C@@H]3O[Si](C)(C)C(C)(C)C)nn2)[C@H](OC(C)=O)[C@@H](OC(C)=O)[C@@H]1OC(C)=O [Compound 18, 1-(2″,3″,4″,6″-tetra-O-acetyl-β-D-glucopyranosyl)-4-(2′,3′-di-O-tert-butyldimethylsilyl-uridine-5′-carbonylaminomethyl)-[1,2,3]-triazole]
CC50 (in vitro): 69 µM
Inhibition of TBEV propagation (size and number of plaques) (TBEV Neudoerfl strain [1]): effectively inhibited virus propagation
Reduction in the number of plaques (TBEV Neudoerfl strain [1]): 98%
Effect on TBEV titers in dose-response assay (TBEV Neudoerfl strain [2]): significantly reduced TBEV titers in a dose-dependent manner
Reduction in viral titer (TBEV Neudoerfl strain [2]): 10^3–10^6 fold
SI (selectivity index: CC50/IC50) (TBEV Neudoerfl strain [2]): 7.4
IC50 (TBEV Neudoerfl strain [2]): 9.3 µM
TBEV-induced cytopathic effect / rate of cell death (TBEV Hypr strain): strongly reduced; also recorded: significantly increased cell survival
Production of TBEV E protein (Western blot) (TBEV E protein): dose-dependent reduction

CC(=O)OC[C@H]1O[C@@H](NC(=O)[C@H]2O[C@@H](n3ccc(=O)[nH]c3=O)[C@@H]3OC(C)(C)O[C@@H]32)[C@H](OC(C)=O)[C@@H](OC(C)=O)[C@H]1OC(C)=O [Compound 14]
CC50 (in vitro): 114 µM
